In patent US20180085330A1, “Dose Adjustment” (AbbVie Inc., priority 2016, published 2018):
Read-outs that look alike come from different tables or passages of the source.

Legend:
[1] = Drug interaction studies: pharmacokinetic parameters of coadministered drug in the presence of glecaprevir/pibrentasvir; type: in vivo, human; conditions: digoxin 0.5 mg single dose; GLE/PIB 400/120 mg once daily
Description: (§1) Drug interaction studies were performed with glecaprevir/pibrentasvir and other drugs that are likely to be coadministered and with drugs commonly used as probes for pharmacokinetic interactions.

[2] = Digoxin single dose with multiple doses of glecaprevir and pibrentasvir (Example 3); type: in vivo, human (adult male and female subjects)
Excerpt: This Example assessed pharmacokinetics, safety, and tolerability of multiple doses of glecaprevir and pibrentasvir with a single dose of digoxin. Adult male and female subjects in general good health (N=12) were enrolled in the study.

[3] = Drug-drug interaction evaluation in overseas subjects, Phase 1 clinical studies (Example 6); type: in vivo, human (overseas subjects); conditions: coadministered with glecaprevir and pibrentasvir
Description: The drug-drug interaction (DDI) of glecaprevir and pibrentasvir was characterized from Phase 1 clinical studies in overseas subjects. DDI was evaluated between glecaprevir and pibrentasvir and drug transporter and CYP probes (CYP3A4, CYP1A2, CYP2D6, CYP2C9 and CYP2C19) and concomitant medications used in HCV-infected subjects including anti-retroviral (ARVs), calcium-channel blockers (CCB), angiotensin-receptor blockers (ARBs), opioids and tacrolimus. Safety and tolerability were assessed throughout the studies.

[4] = Potentially significant drug interactions identified in drug interaction studies (effect on concentration); type: in vivo, human
Excerpt: Table 1 provides the effect of coadministration of glecaprevir and pibrentasvir on concentrations of concomitant drugs and the effect of concomitant drugs on glecaprevir and pibrentasvir.

[5] = target: P-glycoprotein (P-gp) (Homo sapiens, UniProt P08183); assay: P-gp inhibition; type: in vitro ADME
P-glycoprotein (P-gp), sequence (P08183 whole entry): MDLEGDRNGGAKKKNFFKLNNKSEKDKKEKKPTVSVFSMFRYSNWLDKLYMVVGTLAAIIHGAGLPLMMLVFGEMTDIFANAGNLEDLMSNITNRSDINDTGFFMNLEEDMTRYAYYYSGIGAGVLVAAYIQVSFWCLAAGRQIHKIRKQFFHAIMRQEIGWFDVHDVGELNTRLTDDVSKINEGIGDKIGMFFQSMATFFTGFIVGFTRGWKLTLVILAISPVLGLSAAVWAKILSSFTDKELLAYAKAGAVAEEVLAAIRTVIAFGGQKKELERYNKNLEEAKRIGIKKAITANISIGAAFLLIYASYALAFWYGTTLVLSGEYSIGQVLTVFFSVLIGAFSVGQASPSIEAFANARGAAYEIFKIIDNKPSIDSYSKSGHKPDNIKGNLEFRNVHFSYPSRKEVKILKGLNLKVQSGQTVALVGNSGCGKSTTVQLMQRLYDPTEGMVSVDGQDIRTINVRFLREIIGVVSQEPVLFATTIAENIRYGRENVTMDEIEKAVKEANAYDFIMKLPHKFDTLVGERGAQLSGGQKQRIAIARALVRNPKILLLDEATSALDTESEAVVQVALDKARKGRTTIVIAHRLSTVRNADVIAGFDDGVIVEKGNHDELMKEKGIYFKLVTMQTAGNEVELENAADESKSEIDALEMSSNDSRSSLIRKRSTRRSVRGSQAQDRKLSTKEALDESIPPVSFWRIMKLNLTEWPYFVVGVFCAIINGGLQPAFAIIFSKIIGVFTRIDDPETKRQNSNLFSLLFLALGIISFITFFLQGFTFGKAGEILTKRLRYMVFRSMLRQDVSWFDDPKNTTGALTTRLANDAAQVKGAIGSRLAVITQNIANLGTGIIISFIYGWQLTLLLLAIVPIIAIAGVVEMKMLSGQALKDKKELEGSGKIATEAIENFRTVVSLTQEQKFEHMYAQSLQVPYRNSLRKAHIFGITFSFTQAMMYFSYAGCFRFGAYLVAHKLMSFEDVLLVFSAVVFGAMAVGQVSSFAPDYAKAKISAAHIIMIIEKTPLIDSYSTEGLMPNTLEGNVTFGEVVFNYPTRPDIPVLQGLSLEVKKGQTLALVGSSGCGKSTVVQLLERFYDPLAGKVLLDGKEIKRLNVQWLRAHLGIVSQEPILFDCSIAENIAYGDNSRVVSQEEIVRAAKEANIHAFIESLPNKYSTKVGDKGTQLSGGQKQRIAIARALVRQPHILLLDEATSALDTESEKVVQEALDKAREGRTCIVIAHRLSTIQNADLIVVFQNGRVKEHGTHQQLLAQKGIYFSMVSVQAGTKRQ

[6] = target: T1, uridine glucuronosyltransferase (UGT) 1A1 (Homo sapiens, UniProt P22309); assay: UGT1A1 inhibition; type: in vitro ADME
T1 sequence (P22309 26-533): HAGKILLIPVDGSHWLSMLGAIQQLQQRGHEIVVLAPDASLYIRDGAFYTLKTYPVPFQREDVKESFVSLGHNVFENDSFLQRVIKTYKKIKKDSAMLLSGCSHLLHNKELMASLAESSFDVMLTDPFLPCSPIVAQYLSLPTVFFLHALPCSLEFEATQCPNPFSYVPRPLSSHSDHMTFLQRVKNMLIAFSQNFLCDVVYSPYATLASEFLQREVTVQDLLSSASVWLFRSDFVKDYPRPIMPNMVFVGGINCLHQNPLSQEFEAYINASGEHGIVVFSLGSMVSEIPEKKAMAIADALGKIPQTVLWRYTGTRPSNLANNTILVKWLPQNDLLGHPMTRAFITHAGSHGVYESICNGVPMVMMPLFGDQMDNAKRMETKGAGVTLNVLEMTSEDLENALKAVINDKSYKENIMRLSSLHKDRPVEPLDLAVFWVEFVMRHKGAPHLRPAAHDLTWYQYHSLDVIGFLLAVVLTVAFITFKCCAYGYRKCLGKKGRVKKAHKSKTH

[7] = target: T2, breast cancer resistance protein (BCRP) (Homo sapiens, UniProt Q9UNQ0); assay: BCRP inhibition; type: in vitro ADME
T2 sequence (Q9UNQ0 1-655): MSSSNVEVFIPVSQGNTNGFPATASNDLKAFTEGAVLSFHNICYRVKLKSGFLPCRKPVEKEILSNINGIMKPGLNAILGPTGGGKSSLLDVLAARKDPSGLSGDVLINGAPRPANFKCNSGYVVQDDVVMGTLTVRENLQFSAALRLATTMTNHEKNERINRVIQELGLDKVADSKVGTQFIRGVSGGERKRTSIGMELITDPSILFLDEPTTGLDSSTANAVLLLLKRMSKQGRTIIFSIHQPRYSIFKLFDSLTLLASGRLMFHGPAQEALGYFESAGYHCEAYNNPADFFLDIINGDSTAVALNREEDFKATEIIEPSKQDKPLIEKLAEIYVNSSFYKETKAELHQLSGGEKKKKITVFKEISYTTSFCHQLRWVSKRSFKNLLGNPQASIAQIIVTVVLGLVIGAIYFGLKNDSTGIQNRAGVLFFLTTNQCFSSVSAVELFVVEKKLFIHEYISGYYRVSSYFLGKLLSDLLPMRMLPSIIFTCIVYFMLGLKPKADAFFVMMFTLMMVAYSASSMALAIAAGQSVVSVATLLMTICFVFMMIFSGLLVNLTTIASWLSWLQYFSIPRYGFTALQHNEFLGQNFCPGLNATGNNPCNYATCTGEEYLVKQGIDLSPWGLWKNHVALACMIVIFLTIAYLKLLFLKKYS

[8] = target: T3, CYP1A2 (Homo sapiens, UniProt P05177); assay: CYP1A2 inhibition; type: in vitro ADME
T3 sequence (P05177 1-516): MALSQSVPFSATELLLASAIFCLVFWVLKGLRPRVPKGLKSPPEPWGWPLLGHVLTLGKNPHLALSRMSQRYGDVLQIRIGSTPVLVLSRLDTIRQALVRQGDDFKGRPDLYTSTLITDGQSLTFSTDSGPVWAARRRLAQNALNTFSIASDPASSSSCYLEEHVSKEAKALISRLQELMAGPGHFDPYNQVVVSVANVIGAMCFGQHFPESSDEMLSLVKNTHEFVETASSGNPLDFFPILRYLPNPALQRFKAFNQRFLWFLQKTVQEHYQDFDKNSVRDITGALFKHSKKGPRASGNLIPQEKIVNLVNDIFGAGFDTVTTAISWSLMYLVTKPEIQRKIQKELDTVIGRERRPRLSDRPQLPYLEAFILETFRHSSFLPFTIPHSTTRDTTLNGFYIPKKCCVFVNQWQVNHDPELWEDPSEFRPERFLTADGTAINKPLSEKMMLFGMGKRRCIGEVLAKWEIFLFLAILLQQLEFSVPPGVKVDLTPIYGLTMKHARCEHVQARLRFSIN

[9] = system: organic anion transporting polypeptide (OATP) 1B1/3; assay: OATP1B1/3 inhibition; type: in vitro ADME
[10] = system: P-gp and/or BCRP; assay: Substrate of P-gp and/or BCRP; type: in vitro ADME
[11] = system: cytochrome P450 (CYP) 3A; assay: CYP3A inhibition; type: in vitro ADME
[12] = system: OATP1B1/3; assay: Substrate of OATP1B1/3; type: in vitro ADME
[13] = Drug interaction studies: pharmacokinetic parameters of glecaprevir or pibrentasvir in the presence of coadministered drug; type: in vivo, human
Description: as §1

[14] = digoxin 0.5 mg single dose with glecaprevir 400 mg QD + pibrentasvir 120 mg QD
[15] = digoxin 0.5 mg single dose, glecaprevir 400 mg QD + pibrentasvir 120 mg QD
[16] = with atazanavir + ritonavir 300 + 100 mg once daily, GLE/PIB 300/120 mg once daily, effect on the first dose of glecaprevir and pibrentasvir
[17] = with carbamazepine 200 mg twice daily, GLE/PIB 300/120 mg single dose
[18] = with cyclosporine 100 mg single dose, GLE/PIB 300/120 mg once daily
[19] = with cyclosporine 400 mg single dose, GLE/PIB 300/120 mg single dose
[20] = with darunavir + ritonavir 800 + 100 mg once daily, GLE/PIB 300/120 mg once daily
[21] = with elvitegravir/cobicistat/emtricitabine/tenofovir alafenamide 150/150/200/10 mg once daily, GLE/PIB 300/120 mg once daily
[22] = with lopinavir/ritonavir 400/100 mg twice daily, GLE/PIB 300/120 mg once daily
[23] = with omeprazole 20 mg once daily, GLE/PIB 300/120 mg single dose
[24] = with omeprazole 40 mg once daily (1 hour before GLE/PIB), GLE/PIB 300/120 mg single dose
[25] = with rifampin 600 mg (first close), GLE/PIB 300/120 mg single dose
[26] = with rifampin 600 mg once daily, GLE/PIB 300/120 mg single dose 24 hours after final rifampin dose

Compound: C[C@H]1O[C@@H](O[C@H]2[C@@H](O)C[C@H](O[C@H]3[C@@H](O)C[C@H](O[C@H]4CC[C@@]5(C)[C@H](CC[C@@H]6[C@@H]5C[C@@H](O)[C@]5(C)[C@@H](C7=CC(=O)OC7)CC[C@]65O)C4)O[C@@H]3C)O[C@@H]2C)C[C@H](O)[C@@H]1O [digoxin]
- Central Value Ratio (90% CI) AUC [1]: 1.48
- Central Value Ratio (90% CI) Cmax [1]: 1.72
- AUCinf higher when coadministered, compared to digoxin alone [2, 14]: 48%
- Cmax higher when coadministered, compared to digoxin alone [2, 14]: 72%
- fraction of digoxin eliminated in urine, difference with and without glecaprevir and pibrentasvir [2, 15]: ≤ 18%
- renal clearance, difference with and without glecaprevir and pibrentasvir [2, 15]: ≤ 18%
- AUC increase [3]: 48%
- Effect on Concentration ([4]; concentration of the concomitant drug when coadministered with glecaprevir and pibrentasvir): ↑ digoxin

Compound: COC(=O)N[C@H](C(=O)N1CCC[C@H]1c1nc2cc([C@H]3CC[C@H](c4cc5nc([C@@H]6CCCN6C(=O)[C@@H](NC(=O)OC)[C@@H](C)OC)[nH]c5cc4F)N3c3cc(F)c(N4CCC(c5ccc(F)cc5)CC4)c(F)c3)c(F)cc2[nH]1)[C@@H](C)OC [pibrentasvir]
- inhibition of P-gp [5]: inhibitors
- inhibition of UGT1A1 [6]: weak inhibitors
- inhibition of BCRP [7]: inhibitors
- inhibition of CYP1A2 [8]: weak inhibitors
- inhibition of OATP1B1/3 [9]: inhibitors
- substrate of P-gp and/or BCRP [10]: substrates
- inhibition of CYP3A [11]: weak inhibitors

Compound: CC(C)(C)[C@@H]1NC(=O)O[C@@H]2CCC[C@H]2OC/C=C/C(F)(F)c2nc3ccccc3nc2O[C@@H]2C[C@@H](C(=O)N[C@]3(C(=O)NS(=O)(=O)C4(C)CC4)C[C@H]3C(F)F)N(C2)C1=O [glecaprevir, Glecaprevir]
- inhibition of P-gp [5]: inhibitors
- substrate of OATP1B1/3 [12]: substrate
- inhibition of UGT1A1 [6]: weak inhibitors
- Central Value Ratio (90% CI) AUC [13, 16]: ≥6.53
- Central Value Ratio (90% CI) Cmax [13, 16]: ≥4.06
- Central Value Ratio (90% CI) Cmin [13, 16]: ≥14.3
- Central Value Ratio (90% CI) AUC [13, 17]: 0.34
- Central Value Ratio (90% CI) Cmax [13, 17]: 0.33
- Central Value Ratio (90% CI) AUC [13, 18]: 1.37
- Central Value Ratio (90% CI) Cmax [13, 18]: 1.30
- Central Value Ratio (90% CI) Cmin [13, 18]: 1.34
- Central Value Ratio (90% CI) AUC [13, 19]: 5.08
- Central Value Ratio (90% CI) Cmax [13, 19]: 4.51
- Central Value Ratio (90% CI) AUC [13, 20]: 4.97
- Central Value Ratio (90% CI) Cmax [13, 20]: 3.09
- Central Value Ratio (90% CI) Cmin [13, 20]: 8.24
- Central Value Ratio (90% CI) AUC [13, 21]: 3.05
- Central Value Ratio (90% CI) Cmax [13, 21]: 2.50
- Central Value Ratio (90% CI) Cmin [13, 21]: 4.58
- Central Value Ratio (90% CI) AUC [13, 22]: 4.38
- Central Value Ratio (90% CI) Cmax [13, 22]: 2.55
- Central Value Ratio (90% CI) Cmin [13, 22]: 18.6
- Central Value Ratio (90% CI) AUC [13, 23]: 0.71
- Central Value Ratio (90% CI) Cmax [13, 23]: 0.78
- Central Value Ratio (90% CI) AUC [13, 24]: 0.49
- Central Value Ratio (90% CI) Cmax [13, 24]: 0.36
- Central Value Ratio (90% CI) AUC [13, 25]: 8.55
- Central Value Ratio (90% CI) Cmax [13, 25]: 6.52
- Central Value Ratio (90% CI) AUC [13, 26]: 0.12
- Central Value Ratio (90% CI) Cmax [13, 26]: 0.14
- inhibition of BCRP [7]: inhibitors
- inhibition of CYP1A2 [8]: weak inhibitors
- inhibition of OATP1B1/3 [9]: inhibitor
- inhibition of OATP1B1/3 ([9]; listed as Glecaprevir): inhibitors
- Effect on Concentration ([4]; concomitant Darunavir, Lopinavir, Ritonavir): ↑ glecaprevir
- Effect on Concentration ([4]; concomitant St. John's Wort (hypericum perforatum)): ↓ glecaprevir
- Effect on Concentration ([4]; concomitant drug Carbamazepine): ↓ glecaprevir
- Effect on Concentration ([4]; concomitant drug Cyclosporine): ↑ glecaprevir
- Effect on Concentration ([4]; concomitant drug Efavirenz): ↓ glecaprevir
- substrate of P-gp and/or BCRP [10]: substrates
- inhibition of CYP3A [11]: weak inhibitors
